Results as given in US9493434B2, “Substituted indenes as medicaments” (LABORATORIOS DEL DR. ESTEVE S.A., priority 2012, dated 2016).
Structures can show the parent of a compound that is named as a salt.

Molecular target: T1, σ1-receptor (Cavia porcellus, UniProt Q60492)
T1 construct: Guinea pig brains were homogenized in 10 vols; (w/v) of Tris-HCl 50 mM 0.32 M sucrose, pH 7.4; from tissue; host or cells: guinea pig brain membranes
Assay: σ1-receptor binding assay, [3H]-(+)-pentazocine, guinea pig brain membranes
Settings: radioligand [3H]-(+)-pentazocine 5.0 nM, 150 min at 37° C., nonspecific binding with 1 μM haloperidol
Protocol: Brain membrane preparation and binding assays for the σ1-receptor were performed as described (DeHaven-Hudkins, D. L., L. C. Fleissner, and F. Y. Ford-Rice, 1992, Characterization of the binding of [^3H](+)pentazocine to […] recognition sites in guinea pig brain, Eur. J. Pharmacol. 227, 371-378) with some modifications. Guinea pig brains were homogenized in 10 vols. (w/v) of Tris-HCl 50 mM 0.32 M sucrose, pH 7.4, with a Kinematica Polytron PT 3000 at 15000 r.p.m. for 30 s. The homogenate was centrifuged at 1000 g for 10 min at 4° C. and the supernatants collected and centrifuged again at 48000 g for 15 min at 4° C. The pellet was resuspended in 10 volumes of Tris-HCl buffer (50 mM, pH 7.4), incubated at 37° C. for 30 min, and centrifuged at 48000 g for 20 min at 4° C. Following this, the pellet was re-suspended in fresh Tris-HCl buffer (50 mM, pH 7.4) and stored on ice until use.
The radioligand used was [^3H]-(+)-pentazocine at 5.0 nM and the final volume was 200 μl. The incubation was initiated with the addition of 100 μl of membrane at a final tissue concentration of approximately 5 mg tissue net weight/mL and the incubation time was 150 m. at 37° C. After incubation, the membranes were collected onto pretreated glass fiber filterplate (MultiScreen-FC, Millipore), with polyethylenimine 0.1%. The filters were washed two times with 200 μl of washing buffer (50 mM Tris CI, pH=7.4) and then 25 μl of Ecoscint H liquid scintillation cocktail were added. Microplates were allowed to set for several hours and then quantified by liquid scintillation spectrophotometry (1450 Microbeta, Wallac). Nonspecific binding was determined with 1 μM haloperidol.

T1 sequence (Q60492 whole entry): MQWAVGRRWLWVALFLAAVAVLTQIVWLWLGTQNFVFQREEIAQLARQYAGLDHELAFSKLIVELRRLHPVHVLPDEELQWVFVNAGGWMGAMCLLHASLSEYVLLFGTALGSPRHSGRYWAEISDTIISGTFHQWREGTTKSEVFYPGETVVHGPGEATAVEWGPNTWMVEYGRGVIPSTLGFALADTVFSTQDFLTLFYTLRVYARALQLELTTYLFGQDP

Compound	Ki
C1=C(CCN2CCOCC2)c2cccc(-c3ccccc3)c2C1 [Compound 1, 4-(2-(7-phenyl-1H-inden-3-yl)ethyl)morpholine maleate]	3 nM
Fc1ccc(-c2cccc3c2CC=C3CCN2CCCCCC2)cc1 [Compound 2, 1-(2-(7-(4-fluorophenyl)-1H-inden-3-yl)ethyl)azepane hydrochloride]	12 nM
C1=C(CCN2CCOCC2)c2cccc(-c3ccncc3)c2C1 [Compound 3, 4-(2-(7-(pyridin-4-yl)-1H-inden-3-yl)ethyl)morpholine maleate]	47 nM
CN1CCN(CCC2=CCc3c2cccc3-c2ccncc2F)CC1 [Compound 4, 1-(2-(7-(3-fluoropyridin-4-yl)-1H-inden-3-yl)ethyl)-4-methylpiperazine maleate]	24 nM
CN1CCN(CCC2=CCc3c2cccc3-c2ccccc2)CC1 [Compound 5, 1-methyl-4-(2-(7-phenyl-1H-inden-3-yl)ethyl)piperazine maleate]	13 nM
C1=C(CCN2CCN(c3ccccc3)CC2)c2cccc(-c3ccccc3)c2C1 [Compound 6, 1-phenyl-4-(2-(7-phenyl-1H-inden-3-yl)ethyl)piperazine maleate]	31 nM
Clc1cccc(N2CCN(CCC3=CCc4c3cccc4-c3ccccc3)CC2)c1 [Compound 7, 1-(3-chlorophenyl)-4-(2-(7-phenyl-1H-inden-3-yl)ethyl)piperazine maleate]	63 nM
C1=C(CCN2CCCCC2)c2cccc(-c3ccccc3)c2C1 [Compound 8, 1-(2-(7-phenyl-1H-inden-3-yl)ethyl)piperidine maleate]	7 nM
C1=C(CCN2CCCCCC2)c2cccc(-c3ccccc3)c2C1 [Compound 9, 1-(2-(7-phenyl-1H-inden-3-yl)ethyl)azepane maleate]	7 nM
C1=C(CCN2CCC(c3ccccc3)CC2)c2cccc(-c3ccccc3)c2C1 [Compound 10, 4-phenyl-1-(2-(7-phenyl-1H-inden-3-yl)ethyl)piperidine maleate]	13 nM
CC1=C(CCN2CCOCC2)c2cccc(-c3ccccc3)c2C1 [Compound 11, 4-(2-(2-methyl-7-phenyl-1H-inden-3-yl)ethyl)morpholine maleate]	28 nM
CC1=C(CCN2CCN(C)CC2)c2cccc(-c3ccccc3)c2C1 [Compound 12, 1-methyl-4-(2-(2-methyl-7-phenyl-1H-inden-3-yl)ethyl)piperazine maleate]	51 nM
Fc1ccc(-c2cccc3c2CC=C3CCN2CCOCC2)cc1 [Compound 13, 4-(2-(7-(4-fluorophenyl)-1H-inden-3-yl)ethyl)morpholine maleate]	4 nM
Fc1ccc(-c2cccc3c2CC=C3CCN2CCN(c3ccccc3)CC2)cc1 [Compound 14, 1-(2-(7-(4-fluorophenyl)-1H-inden-3-yl)ethyl)-4-phenylpiperazine maleate]	24 nM
Fc1ccc(-c2cccc3c2CC=C3CCN2CCCCC2)cc1 [Compound 15, 1-(2-(7-(4-fluorophenyl)-1H-inden-3-yl)ethyl)piperidine maleate]	8 nM
CN1CCN(CCC2=CCc3c2cccc3-c2ccc(F)cc2)CC1 [Compound 16, 1-(2-(7-(4-fluorophenyl)-1H-inden-3-yl)ethyl)-4-methylpiperazine maleate]	12 nM
CN1CCN(CCC2=CCc3c2cccc3-c2cccc(F)c2)CC1 [Compound 17, 1-(2-(7-(3-fluorophenyl)-1H-inden-3-yl)ethyl)-4-methylpiperazine maleate]	14 nM
Fc1cccc(-c2cccc3c2CC=C3CCN2CCOCC2)c1 [Compound 18, 4-(2-(7-(3-fluorophenyl)-1H-inden-3-yl)ethyl)morpholine maleate]	4 nM
Clc1ccc(-c2cccc3c2CC=C3CCN2CCOCC2)cc1Cl [Compound 19, 4-(2-(7-(3,4-dichlorophenyl)-1H-inden-3-yl)ethyl)morpholine maleate]	12 nM

Compound	Ki
CN1CCN(CCC2=CCc3c2cccc3-c2ccc(Cl)c(Cl)c2)CC1 [Compound 20, 1-(2-(7-(3,4-dichlorophenyl)-1H-inden-3-yl)ethyl)-4-methylpiperazine maleate]	25 nM
COc1ccc(-c2cccc3c2CC=C3CCN2CCOCC2)cc1 [Compound 21, 4-(2-(7-(4-methoxyphenyl)-1H-inden-3-yl)ethyl)morpholine maleate]	53 nM
COc1ccc(-c2cccc3c2CC=C3CCN2CCN(C)CC2)cc1 [Compound 22, 1-(2-(7-(4-methoxyphenyl)-1H-inden-3-yl)ethyl)-4-methylpiperazine maleate]	129 nM
C1=C(CCN2CCOCC2)c2cccc(-c3ccsc3)c2C1 [Compound 25, 4-(2-(7-(thiophen-3-yl)-1H-inden-3-yl)ethyl)morpholine maleate]	6 nM
CN1CCN(CCC2=CCc3c2cccc3-c2ccsc2)CC1 [Compound 26, 1-methyl-4-(2-(7-(thiophen-3-yl)-1H-inden-3-yl)ethyl)piperazine maleate]	7 nM
CN1CCN(CCC2=CCc3c2cccc3-n2ccnn2)CC1 [Compound 27, 1-(2-(7-(1H-1,2,3-triazol-1-yl)-1H-inden-3-yl)ethyl)-4-methylpiperazine maleate]	185 nM
Cc1noc(C)c1-c1cccc2c1CC=C2CCN1CCN(C)CC1 [Compound 28, 3,5-dimethyl-4-(3-(2-(4-methylpiperazin-1-yl)ethyl)-1H-inden-7-yl)isoxazole maleate]	36 nM
CN1CCN(CCC2=CCc3c2cccc3-c2cncnc2)CC1 [Compound 29, 5-(3-(2-(4-methylpiperazin-1-yl)ethyl)-1H-inden-7-yl)pyrimidine maleate]	168 nM
CN1CCN(CCC2=CCc3c2cccc3-c2ccncc2)CC1 [Compound 30, 1-methyl-4-(2-(7-(pyridin-4-yl)-1H-inden-3-yl)ethyl)piperazine maleate]	26 nM
CN1CCCN(CCC2=CCc3c2cccc3-c2ccncc2)CC1 [Compound 31, 1-methyl-4-(2-(7-(pyridin-4-yl)-1H-inden-3-yl)ethyl)-1,4-diazepane maleate]	29 nM
CN1CCN(CCC2=CCc3c2cccc3-c2ccnc(F)c2)CC1 [Compound 33, 1-(2-(7-(2-fluoropyridin-4-yl)-1H-inden-3-yl)ethyl)-4-methylpiperazine maleate]	29 nM
C1=C(CCN2CCOCC2)c2cccc(-c3cccnc3)c2C1 [Compound 34, 4-(2-(7-(pyridin-3-yl)-1H-inden-3-yl)ethyl)morpholine maleate]	82 nM
CN1CCN(CCC2=CCc3c2cccc3-c2cccnc2)CC1 [Compound 35, 1-methyl-4-(2-(7-(pyridin-3-yl)-1H-inden-3-yl)ethyl)piperazine maleate]	61 nM
COc1ccc(-c2cccc3c2CC=C3CCN2CCN(C)CC2)cn1 [Compound 36, 1-(2-(7-(6-methoxypyridin-3-yl)-1H-inden-3-yl)ethyl)-4-methylpiperazine maleate]	37 nM
CN1CCN(CCC2=CCc3c2cccc3-c2ccc(F)nc2)CC1 [Compound 37, 1-(2-(7-(6-fluoropyridin-3-yl)-1H-inden-3-yl)ethyl)-4-methylpiperazine maleate]	34 nM
CN1CCN(CCC2=CCc3c2cccc3-c2ccnn2C)CC1 [Compound 38, 1-methyl-4-(2-(7-(1-methyl-1H-pyrazol-5-yl)-1H-inden-3-yl)ethyl)piperazine maleate]	30 nM
COc1ccc(-c2cccc3c2CC=C3CCN2CCOCC2)cn1 [Compound 39, 4-(2-(7-(6-methoxypyridin-3-yl)-1H-inden-3-yl)ethyl)morpholine maleate]	180 nM
CN1CCN(CCC2=CCc3cc(-c4ccncc4)ccc32)CC1 [Compound 40, 1-methyl-4-(2-(6-pyridin-4-yl)-1H-inden-3-yl)ethyl)piperazine maleate]	143 nM
CN1CCN(CCC2=CCc3cc(-c4ccnc(F)c4)ccc32)CC1 [Compound 41, 1-(2-(6-(2-fluoropyridin-4-yl)-1H-inden-3-yl)ethyl)-4-methylpiperazine maleate]	120 nM
